The supplement of paper PMC11061612

Legend:
[1] = test system: NCI-H1341 (Small Cell Lung Carcinoma); assay: Bliss excess, mean over the matrix (fraction); higher = more synergy
Summary of the method: (§1)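 Cell lines grown in DMEM/F12 or RPMI with 10% FBS were plated in 1536-well plates and held 24 hours at 37°C, 5% CO2 before 72 hours of exposure to two-drug dose matrices, with DMSO typically at 0.2%. CellTiter-Glo 2.0 luminescence gave viability, which was converted to inhibition. Vehicle wells were set to 0 and blank wells to 1. Combination Emax is the second-highest inhibition in the matrix, and Bliss excess is the observed combination effect minus the expected EA + EB − EA·EB, where EA and EB are the single-agent effects.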

[2] = test system: SKG-IIIa (Cervical Carcinoma); assay: as above
Summary of the method: as §1

[3] = test system: SUP-M2 (T-Cell Non-Hodgkin's Lymphoma); assay: as above
Summary of the method: as §1

[4] = test system: DBTRG-05MG (Glioblastoma); assay: combination Emax (second highest fraction inhibited in the dose matrix, 72 h); higher = more inhibition; extreme values may be limits of the assay
Summary of the method: as §1

ES6 (Ewing's Sarcoma) = assay: as above
Summary of the method: as §1

GAK (Melanoma) = assay: as above
Summary of the method: as §1

IST-MEL1 (Melanoma) = assay: as above
Summary of the method: as §1

KALS-1 (Glioblastoma) = assay: as above
Summary of the method: as §1

[5] = test system: MM1S (Plasma Cell Myeloma); assay: as above
Summary of the method: as §1

[6] = test system: MS-1 (Small Cell Lung Carcinoma); assay: as above
Summary of the method: as §1

[7] = test system: NAMALWA (Burkitt's Lymphoma); assay: as above
Summary of the method: as §1

[8] = test system: NCI-H1341 (Small Cell Lung Carcinoma); assay: as above
Summary of the method: as §1

NCI-H2373 (Mesothelioma) = assay: as above
Summary of the method: as §1

[9] = test system: OAW-28 (Ovarian Carcinoma); assay: as above
Summary of the method: as §1

[10] = test system: P30-OHK (B-Lymphoblastic Leukemia); assay: as above
Summary of the method: as §1

[11] = test system: PL4 (Pancreatic Carcinoma); assay: as above
Summary of the method: as §1

[12] = test system: SK-CO-1 (Colorectal Carcinoma); assay: as above
Summary of the method: as §1

[13] = test system: SiHa (Cervical Carcinoma); assay: as above
Summary of the method: as §1

T47D (Breast Carcinoma) = assay: as above
Summary of the method: as §1

[14] = test system: ZR-75-30 (Breast Carcinoma); assay: as above
Summary of the method: as §1
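Throughout, for Bliss excess, mean over the matrix: after 72 h of two-drug dosing.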

SMILES | Bliss excess [1] | Bliss excess [2] | Bliss excess [3] | combination Emax [4] | combination Emax (ES6 (Ewing's Sarcoma)) | combination Emax (GAK (Melanoma)) | combination Emax (IST-MEL1 (Melanoma)) | combination Emax (KALS-1 (Glioblastoma)) | combination Emax [5] | combination Emax [6] | combination Emax [7] | combination Emax [8] | combination Emax (NCI-H2373 (Mesothelioma)) | combination Emax [9] | combination Emax [10] | combination Emax [11] | combination Emax [12] | combination Emax [13] | combination Emax (T47D (Breast Carcinoma)) | combination Emax [14]
CN(CCO)CC[C@H](CSc1ccccc1)Nc1ccc(S(=O)(=O)NC(=O)c2ccc(N3CCC([C@@H](O)c4ccccc4-c4ccc(Cl)cc4)CC3)cc2)cc1S(=O)(=O)C(F)(F)F [AZD4320] + CN(C)CCCOc1ccc(-c2ccc3ncc4c(c3c2)n(C2CCOCC2)c(=O)n4C)cn1 [AZD0156] (first compound max 1 µM, 7x7, partner max 1 µM) | 0.0517 | -0.0392 | 0.0491 | 0.745 | 0.188 | 0.209 | 0.249 | 0.227 | 0.984 | 0.68 | 0.158 | 0.974 | 0.191 | 0.912 | 0.987 | 0.462 | 0.712 | 0.108 | 0.283 | 0.169
Cn1cnc2c(F)c(Nc3ccc(Br)cc3Cl)c(C(=O)NOCCO)cc21 [Selumetinib] + C[C@@H]1COCCN1C2=NC(=NC(=C2)C3(CC3)[S@](=N)(=O)C)C4=C5C=CNC5=NC=C4 [AZD6738] (first compound max 10 µM, 7x7, partner max 10 µM) | 0.0757 | -0.0275 | 0.012 | 0.358 | 0.367 | 0.667 | 0.74 | 0.681 | 0.475 | 0.667 | 0.918 | 0.809 | 0.463 | 0.598 | 0.889 | 0.798 | 0.808 | 0.209 | 0.158 | 0.111
C[C@@H](c1ccc2nccn2c1)n1nnc2ncc(-c3cnn(C)c3)nc21 [Savolitinib] + Cc1c2c(nn1C)CSCc1cc(n(C)n1)CSc1cc(c3ccccc3c1)OCCCc1c(C(=O)O)n(C)c3c-2c(Cl)ccc13 [AZD5991] (first compound max 1 µM, 7x7, partner max 1 µM) | 0.0274 | -0.0554 | -0.0292 | 0.0768 | 0.174 | 0.264 | 0.104 | 0.186 | 0.225 | 0.26 | 0.956 | 0.488 | 0.133 | 0.142 | 0.683 | 0.189 | 0.114 | 0.167 | 0.23 | 0.248
COc1cccc2c1C(=O)c1c(O)c3c(c(O)c1C2=O)C[C@@](O)(C(=O)CO)C[C@@H]3O[C@H]1C[C@H](N)[C@H](O)[C@H](C)O1 [Doxorubicin] + Cc1cc2ncnn2cc1Nc1ncc2c(n1)n(C1CCOCC1)c(=O)n2C [AZD7648] (first compound max 1 µM, 7x7, partner max 10 µM) | 0.0628 | 0.0086 | 0.112 | 0.588 | 0.573 | 0.803 | 0.724 | 0.832 | 0.922 | 0.905 | 0.976 | 0.905 | 0.95 | 0.534 | 0.975 | 0.535 | 0.77 | 0.571 | 0.64 | 0.3
CC1(C)CCC(CN2CCN(c3ccc(C(=O)NS(=O)(=O)c4ccc(NCC5CCOCC5)c([N+](=O)[O-])c4)c(Oc4cnc5[nH]ccc5c4)c3)CC2)=C(c2ccc(Cl)cc2)C1 [Venetoclax] + C=CCn1c(=O)c2cnc(Nc3ccc(N4CCN(C)CC4)cc3)nc2n1-c1cccc(C(C)(C)O)n1 [AZD1775] (first compound max 1 µM, partner max 1 µM) | 0.101 | -0.0362 | 0.03 | 0.241 | 0.513 | 0.792 | 0.799 | 0.93 | 0.908 | 0.939 | 0.975 | 0.808 | 0.364 | 0.233 | 0.992 | 0.551 | 0.569 | 0.223 | 0.219 | 0.159
NC1(C(=O)N[C@@H](CCO)c2ccc(Cl)cc2)CCN(c2ncnc3[nH]ccc23)CC1 [Capivasertib] + Cn1cnc2c(F)c(Nc3ccc(Br)cc3Cl)c(C(=O)NOCCO)cc21 [Selumetinib] (first compound max 10 µM, 7x7, partner max 10 µM) | 0.0605 | -0.0066 | 0.0835 | 0.431 | 0.434 | 0.757 | 0.584 | 0.61 | 1 | 0.267 | 0.387 | 0.728 | 0.664 | 0.268 | 0.186 | 0.726 | 0.886 | 0.233 | 0.42 | 0.501
Cc1c2c(nn1C)CSCc1cc(n(C)n1)CSc1cc(c3ccccc3c1)OCCCc1c(C(=O)O)n(C)c3c-2c(Cl)ccc13 [AZD5991] + C1CN(CCC1(C(=O)N[C@@H](CCO)C2=CC=C(C=C2)Cl)N)C3=NC=NC4=C3C=CN4 [Capivasertib] (first compound max 1 µM, 7x7, partner max 3 µM) | 0.0609 | -0.0231 | -0.0079 | 0.199 | 0.281 | 0.179 | 0.212 | 0.469 | 1 | 0.524 | 1 | 0.647 | 0.42 | 0.224 | 0.71 | 0.339 | 0.213 | 0.23 | 0.579 | 0.567
Cc1c2c(nn1C)CSCc1cc(n(C)n1)CSc1cc(c3ccccc3c1)OCCCc1c(C(=O)O)n(C)c3c-2c(Cl)ccc13 [AZD5991] + CCN(CCO)CCCOc1ccc2c(Nc3cc(CC(=O)Nc4cccc(F)c4)[nH]n3)ncnc2c1 [AZD2811] (first compound max 1 µM, 7x7, partner max 1 µM) | 0.0493 | 0.0203 | 0.0104 | 0.225 | 0.29 | 0.314 | 0.349 | 0.358 | 0.982 | 0.48 | 0.98 | 0.341 | 0.267 | 0.378 | 0.963 | 0.474 | 0.73 | 0.368 | 0.708 | 0.511
CN(C)CCCOc1ccc(-c2ccc3ncc4c(c3c2)n(C2CCOCC2)c(=O)n4C)cn1 [AZD0156] + O=C(c1cc(Cc2n[nH]c(=O)c3ccccc23)ccc1F)N1CCN(C(=O)C2CC2)CC1 [Olaparib] (first compound max 3 µM, partner max 3 µM) | -0.0165 | -0.0324 | 0.202 | 0.152 | 0.315 | 0.193 | 0.228 | 0.135 | 0.881 | 0.438 | 0.487 | 0.306 | 0.359 | 0.284 | 0.668 | 0.34 | 0.608 | 0.261 | 0.366 | 0.283
COc1cccc(OCCCN)c1-c1cc(Nc2cnc(C#N)cn2)n[nH]1 [Prexasertib] + C=CCn1c(=O)c2cnc(Nc3ccc(N4CCN(C)CC4)cc3)nc2n1-c1cccc(C(C)(C)O)n1 [AZD1775] (first compound max 1 µM, partner max 1 µM) | 0.13 | -0.006 | 0.102 | 0.331 | 0.603 | 0.783 | 0.812 | 0.901 | 0.963 | 1 | 0.989 | 0.982 | 0.497 | 0.569 | 0.98 | 0.852 | 0.775 | 0.487 | 0.704 | 0.137
NC1(C(=O)N[C@@H](CCO)c2ccc(Cl)cc2)CCN(c2ncnc3[nH]ccc23)CC1 [Capivasertib] + CCN(CCO)CCCOc1ccc2c(Nc3cc(CC(=O)Nc4cccc(F)c4)[nH]n3)ncnc2c1 [AZD2811] (first compound max 10 µM, 7x7, partner max 1 µM) | -0.0036 | -0.035 | -0.0005 | 0.317 | 0.418 | 0.219 | 0.459 | 0.495 | 0.998 | 0.386 | 0.713 | 0.655 | 0.491 | 0.249 | 0.886 | 0.393 | 0.64 | 0.299 | 0.456 | 0.442
Cc1cc2ncnn2cc1Nc1ncc2c(n1)n(C1CCOCC1)c(=O)n2C [AZD7648] + C[C@@H]1COCCN1C2=NC(=NC(=C2)C3(CC3)[S@](=N)(=O)C)C4=C5C=CNC5=NC=C4 [AZD6738] (first compound max 10 µM, 7x7, partner max 10 µM) | -0.0087 | 0.0412 | 0.0562 | 0.306 | 0.601 | 0.578 | 0.777 | 0.866 | 0.592 | 0.728 | 0.936 | 0.801 | 0.674 | 0.42 | 0.811 | 0.631 | 0.563 | 0.32 | 0.464 | 0.17
COc1cccc(OCCCN)c1-c1cc(Nc2cnc(C#N)cn2)n[nH]1 [Prexasertib] + CN(C)CCCOc1ccc(-c2ccc3ncc4c(c3c2)n(C2CCOCC2)c(=O)n4C)cn1 [AZD0156] (first compound max 1 µM, 7x7, partner max 1 µM) | -0.032 | 0.0159 | 0.0163 | 0.409 | 0.573 | 0.718 | 0.75 | 0.839 | 0.847 | 0.983 | 0.991 | 0.869 | 0.423 | 0.563 | 0.987 | 0.806 | 0.695 | 0.293 | 0.426 | 0.117
